How the values were obtained:
JAK1 = JAK1 (Homo sapiens (Human), UniProt P23458); assay: LanthaScreen JAK biochemical assay, JAK1; conditions: for Ki: read-out: JAK 1 (pKi) (converted)
Description: A panel of four LanthaScreen JAK biochemical assays (JAK1, 2, 3 and Tyk2) were carried in a common kinase reaction buffer (50 mM HEPES, pH 7.5, 0.01% Brij-35, 10 mM MgCl2, and 1 mM EGTA). Recombinant GST-tagged JAK enzymes and a GFP-tagged STAT1 peptide substrate were obtained from Life Technologies.

[1] = tested on: IL-13 induced STAT6 phosphorylation in HT-29 human colorectal adenocarcinoma cells; assay: Cellular JAK potency assay: inhibition of IL-13 induced STAT6 phosphorylation; format: cell-based; conditions: IL-13 induced STAT6 phosphorylation, HT-29 cells; for IC50: Homo sapiens, read-out: HT-29 (pIC50) (converted)
Description: The potency of test compounds for inhibition of the JAK-dependent cytokine interleuken-13 (IL-13) was assessed by measuring IL-13 (IL-13, R&D Systems) induced STAT6 phosphorylation in HT-29 human colorectal adenocarcinoma cells (ATCC).
The anti-STAT6 antibody (Cell Signaling Technologies) was conjugated to AlphaScreen acceptor beads (Perkin Elmer), while the anti-pSTAT6 (pTyr641) antibody (Cell Signaling Technologies) was biotinylated using EZ-Link Sulfo-NHS-Biotin (Thermo Scientific).
HT-29 cells were grown at 37° C. in a 5% CO2 humidified incubator in McCoy's 5a Modified medium (ATCC) supplemented with 10% FBS (Hyclone), 100 U/mL penicillin, 100 μg/mL streptomycin (Life Technologies), and 2 mM GlutaMAX (Life Technologies). On day 1 of the assay, cells were seeded at a 7,500 cells/well density in white poly-D-lysine-coated 384-well plates (Corning) with 25 μL medium, and were allowed to adhere overnight in the incubator. On day 2 of the assay, the medium was removed and replaced with 12 μL of assay buffer (Hank's Balanced Salt Solution/HBSS, 25 mM HEPES, and 1 mg/ml bovine serum albumin/BSA) containing dose-responses of test compounds. Compounds were serially diluted in DMSO and then diluted another 1000-fold in media to bring the final DMSO concentration to 0.1%. Cells were incubated with test compounds at 37° C. for 1 h, and followed by the addition of 12 μL of pre-warmed IL-13 (12 ng/ml in assay buffer) for stimulation. After incubating at 37° C. for 30 min, the assay buffer (containing compound and IL-13) was removed, and 10 μL of cell lysis buffer (25 mM HEPES, 0.1% SDS, 1% NP-40, 5 mM MgCl2, 1.3 mM EDTA, 1 mM EGTA, and supplement with Complete Ultra mini protease inhibitors and PhosSTOP from Roche Diagnostics). The plates were shaken at ambient temperature for 30 min before the addition of detection reagents. A mixture of biotin-anti-pSTAT6 and anti-STAT6 conjugated acceptor beads was added first and incubated at ambient temperature for 2 h, followed by the addition of streptavidin conjugated donor beads (Perkin Elmer). After a minimum of 2 h incubation, the assay plates were read on the EnVision plate reader.
Results were expressed as the negative logarithm of the IC50 value, pIC50.

Chain of JAK1 (P23458 whole entry): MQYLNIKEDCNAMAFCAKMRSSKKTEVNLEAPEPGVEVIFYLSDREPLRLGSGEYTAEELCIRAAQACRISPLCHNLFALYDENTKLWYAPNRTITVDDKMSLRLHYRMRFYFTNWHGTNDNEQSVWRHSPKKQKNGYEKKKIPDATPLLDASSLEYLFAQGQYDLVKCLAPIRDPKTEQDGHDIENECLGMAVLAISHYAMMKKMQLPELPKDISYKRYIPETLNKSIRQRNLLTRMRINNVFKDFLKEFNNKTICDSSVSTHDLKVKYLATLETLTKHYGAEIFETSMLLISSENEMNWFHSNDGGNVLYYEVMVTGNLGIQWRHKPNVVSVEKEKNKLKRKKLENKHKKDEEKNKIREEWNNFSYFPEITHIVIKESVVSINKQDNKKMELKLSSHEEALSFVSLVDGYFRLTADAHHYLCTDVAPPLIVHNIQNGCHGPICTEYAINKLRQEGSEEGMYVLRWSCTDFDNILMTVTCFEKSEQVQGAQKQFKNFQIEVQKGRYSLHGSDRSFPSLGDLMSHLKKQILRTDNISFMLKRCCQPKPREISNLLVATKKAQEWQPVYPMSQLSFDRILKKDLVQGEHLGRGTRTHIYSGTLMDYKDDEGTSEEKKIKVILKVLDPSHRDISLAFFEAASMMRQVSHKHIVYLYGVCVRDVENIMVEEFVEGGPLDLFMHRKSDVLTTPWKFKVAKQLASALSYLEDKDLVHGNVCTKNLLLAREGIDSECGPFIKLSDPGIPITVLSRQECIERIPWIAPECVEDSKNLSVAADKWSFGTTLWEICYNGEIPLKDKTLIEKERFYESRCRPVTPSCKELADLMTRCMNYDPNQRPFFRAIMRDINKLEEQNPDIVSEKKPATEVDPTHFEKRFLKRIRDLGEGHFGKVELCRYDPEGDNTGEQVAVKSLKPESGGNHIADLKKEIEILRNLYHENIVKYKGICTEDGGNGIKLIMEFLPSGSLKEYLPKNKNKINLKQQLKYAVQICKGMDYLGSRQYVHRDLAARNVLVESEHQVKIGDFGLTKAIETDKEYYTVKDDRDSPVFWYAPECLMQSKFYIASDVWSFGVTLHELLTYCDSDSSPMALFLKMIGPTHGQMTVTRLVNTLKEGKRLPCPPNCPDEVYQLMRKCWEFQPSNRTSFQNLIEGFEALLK

Row | SMILES | JAK 1 (pKi) (JAK1) | HT-29 (pIC50) [1] | Ki (JAK1) [µM] | IC50 [1] [µM]
1 | COc1cc(Nc2cc(CO)[nH]n2)nc(N[C@@H]2C[C@H]3CCC[C@@H](C2)N3S(=O)(=O)c2ccccc2)n1 [Example 1-8, (3-((6-methoxy-2-(((1R,3s,5S)-9-(phenylsulfonyl)-9-azabicyclo[3.3.1]nonan-3-yl)amino)pyrimidin-4-yl)amino)-1H-pyrazol-5-yl)methanol] | A (A represents a pKi value≥10 (Ki≤0.1 nM)) | A (A represents a pIC50 value≥7.5 (IC50≤32 nM)) | – | –
2 | COc1cc(Nc2cc(CO)[nH]n2)nc(N[C@@H]2C[C@H]3CC[C@@H](C2)N3Cc2ccncc2)n1 [Example 2-1] | C (C represents a pKi value between 8 and 9 (Ki between 10 nM and 1 nM)) | C (C represents a pIC50 value between 6 and 6.7 (IC50 between 1 μM and 200 nM)) | – | –
3 | COc1cc(Nc2cc(CO)[nH]n2)nc(N(C)[C@@H]2C[C@H]3CCC[C@@H](C2)N3Cc2ccnc(C#N)c2)n1 [Example 2-8, 4-(((1R,3s,5S)-3-((4-((5-(hydroxymethyl)-1H-pyrazol-3-yl)amino)-6-methoxypyrimidin-2-yl)(methyl)amino)-9-azabicyclo[3.3.1]nonan-9-yl)methyl)picolinonitrile] | B (B represents a pKi value between 9 and 10 (Ki between 1 nM and 0.1 nM)) | B (B represents a pIC50 value between 6.7 and 7.5 (IC50 between 200 nM and 32 nM)) | – | –
4 | COc1cc(Nc2cc(CO)[nH]n2)nc(N[C@@H]2C[C@H]3CCC[C@@H](C2)N3Cc2ccc(C#N)nc2)n1 [Example 6, 5-(((1R,3s,5S)-3-((4-((5-(hydroxymethyl)-1H-pyrazol-3-yl)amino)-6-methoxypyrimidin-2-yl)amino)-9-azabicyclo[3.3.1]nonan-9-yl)methyl)picolinonitrile] | – | – | 0.0001 to 0.001 | –
5 | COc1cc(Nc2cc(CO)[nH]n2)nc(N[C@@H]2C[C@H]3CCC[C@@H](C2)N3S(=O)(=O)N2CCC2)n1 [Example 1-5, (3-((2-(((1R,3s,5S)-9-(azetidin-1-ylsulfonyl)-9-azabicyclo[3.3.1]nonan-3-yl)amino)-6-methoxypyrimidin-4-yl)amino)-1H-pyrazol-5-yl)methanol] | B (B represents a pKi value between 9 and 10 (Ki between 1 nM and 0.1 nM)) | B (B represents a pIC50 value between 6.7 and 7.5 (IC50 between 200 nM and 32 nM)) | – | –
6 | COc1cc(Nc2cc(CO)[nH]n2)nc(N[C@@H]2C[C@H]3CCC[C@@H](C2)N3Cc2ccnc(C#N)c2)n1 [Example 2-3, 4-(((1R,3s,5S)-3-((4-((5-(hydroxymethyl)-1H-pyrazol-3-yl)amino)-6-methoxypyrimidin-2-yl)amino)-9-azabicyclo[3.3.1]nonan-9-yl)methyl)picolinonitrile] | B (B represents a pKi value between 9 and 10 (Ki between 1 nM and 0.1 nM)) | B (B represents a pIC50 value between 6.7 and 7.5 (IC50 between 200 nM and 32 nM)) | – | –
7 | COc1cc(Nc2cc(CO)[nH]n2)nc(N(C)[C@@H]2C[C@H]3CCC[C@@H](C2)N3S(=O)(=O)CC2CC2)n1 [Example 1-18, (3-((2-(((1R,3s,5S)-9-((cyclopropylmethyl)sulfonyl)-9-azabicyclo[3.3.1]nonan-3-yl)(methyl)amino)-6-methoxypyrimidin-4-yl)amino)-1H-pyrazol-5-yl)methanol] | B (B represents a pKi value between 9 and 10 (Ki between 1 nM and 0.1 nM)) | – | – | –
8 | COc1cc(Nc2cc(CO)[nH]n2)nc(N[C@@H]2C[C@H]3CCC[C@@H](C2)N3Cc2ccncc2)n1 [Example 2-2] | B (B represents a pKi value between 9 and 10 (Ki between 1 nM and 0.1 nM)) | B (B represents a pIC50 value between 6.7 and 7.5 (IC50 between 200 nM and 32 nM)) | – | –
9 | COc1cc(Nc2cc(CO)[nH]n2)nc(N[C@@H]2C[C@H]3CCC[C@@H](C2)N3S(=O)(=O)c2cncc(F)c2)n1 [Example 1-7, (3-((2-(((1R,3s,5S)-9-((5-fluoropyridin-3-yl)sulfonyl)-9-azabicyclo[3.3.1]nonan-3-yl)amino)-6-methoxypyrimidin-4-yl)amino)-1H-pyrazol-5-yl)methanol] | B (B represents a pKi value between 9 and 10 (Ki between 1 nM and 0.1 nM)) | – | – | –
10 | COc1cc(Nc2cc(CO)[nH]n2)nc(N[C@@H]2C[C@H]3CC[C@@H](C2)N3S(=O)(=O)c2ccccc2)n1 [Example 1-4] | – | – | 0.01 to 0.0316 | –
11 | COc1cc(Nc2cc(CO)[nH]n2)nc(N[C@@H]2C[C@H]3CCC[C@@H](C2)N3Cc2cccnc2)n1 [Example 2-4, (3-((6-methoxy-2-(((1R,3s,5S)-9-(pyridin-3-ylmethyl)-9-azabicyclo[3.3.1]nonan-3-yl)amino)pyrimidin-4-yl)amino)-1H-pyrazol-5-yl)methanol] | B (B represents a pKi value between 9 and 10 (Ki between 1 nM and 0.1 nM)) | B (B represents a pIC50 value between 6.7 and 7.5 (IC50 between 200 nM and 32 nM)) | – | –
12 | CCS(=O)(=O)N1[C@@H]2CCC[C@H]1C[C@H](Nc1nc(Nc3cc(CO)[nH]n3)cc(OC)n1)C2 [Example 1-9, (3-((2-(((1R,3s,5S)-9-(ethylsulfonyl)-9-azabicyclo[3.3.1]nonan-3-yl)amino)-6-methoxypyrimidin-4-yl)amino)-1H-pyrazol-5-yl)methanol] | B (B represents a pKi value between 9 and 10 (Ki between 1 nM and 0.1 nM)) | B (B represents a pIC50 value between 6.7 and 7.5 (IC50 between 200 nM and 32 nM)) | – | –
13 | COc1cc(Nc2cc(CO)[nH]n2)nc(N[C@@H]2C[C@H]3CCC[C@@H](C2)N3S(=O)(=O)c2cccnc2)n1 [Example 1-11, (3-((6-methoxy-2-(((1R,3s,5S)-9-(pyridin-3-ylsulfonyl)-9-azabicyclo[3.3.1]nonan-3-yl)amino)pyrimidin-4-yl)amino)-1H-pyrazol-5-yl)methanol] | B (B represents a pKi value between 9 and 10 (Ki between 1 nM and 0.1 nM)) | B (B represents a pIC50 value between 6.7 and 7.5 (IC50 between 200 nM and 32 nM)) | – | –
14 | COc1cc(Nc2cc(CO)[nH]n2)nc(N[C@@H]2C[C@H]3CC[C@@H](C2)N3S(=O)(=O)N2CCC2)n1 [Example 1-1] | – | – | 0.001 to 0.01 | 0.0316 to 0.2
15 | COc1cc(Nc2cc(CO)[nH]n2)nc(N[C@@H]2C[C@H]3CCC[C@@H](C2)N3S(=O)(=O)CC2CC2)n1 [Example 1-10, (3-((2-(((1R,3s,5S)-9-((cyclopropylmethyl)sulfonyl)-9-azabicyclo[3.3.1]nonan-3-yl)amino)-6-methoxypyrimidin-4-yl)amino)-1H-pyrazol-5-yl)methanol] | B (B represents a pKi value between 9 and 10 (Ki between 1 nM and 0.1 nM)) | – | – | –
16 | COc1cc(Nc2cc(CO)[nH]n2)nc(N[C@@H]2C[C@H]3CC[C@@H](C2)N3S(=O)(=O)N2CC(C#N)C2)n1 [Example 1-2] | – | – | 0.0001 to 0.001 | 0.2 to 1
17 | COc1cc(Nc2cc(CO)[nH]n2)nc(N[C@@H]2C[C@H]3CCC[C@@H](C2)N3S(=O)(=O)N2CC(C#N)C2)n1 [Example 1-6, 1-(((1R,3s,5S)-3-((4-((5-(hydroxymethyl)-1H-pyrazol-3-yl)amino)-6-methoxypyrimidin-2-yl)amino)-9-azabicyclo[3.3.1]nonan-9-yl)sulfonyl)azetidine-3-carbonitrile] | A (A represents a pKi value≥10 (Ki≤0.1 nM)) | B (B represents a pIC50 value between 6.7 and 7.5 (IC50 between 200 nM and 32 nM)) | – | –
18 | COc1cc(Nc2cc(CO)[nH]n2)nc(N(C)C2C[C@H]3CCC[C@@H](C2)N3C(=O)C(F)F)n1 (stereo partly drawn) [Example 9, 2,2-difluoro-1-((1R,3s,5S)-3-((4-((5-(hydroxymethyl)-1H-pyrazol-3-yl)amino)-6-methoxypyrimidin-2-yl)(methyl)amino)-9-azabicyclo[3.3.1]nonan-9-yl)ethan-1-one] | – | – | – | 0.0316 to 0.2
19 | COc1cc(Nc2cc(CO)[nH]n2)nc(N[C@@H]2C[C@H]3CCC[C@@H](C2)N3C(=O)C(F)F)n1 [Example 3-1, 2,2-difluoro-1-((1R,3s,5S)-3-((4-((5-(hydroxymethyl)-1H-pyrazol-3-yl)amino)-6-methoxypyrimidin-2-yl)amino)-9-azabicyclo[3.3.1]nonan-9-yl)ethan-1-one] | B (B represents a pKi value between 9 and 10 (Ki between 1 nM and 0.1 nM)) | – | – | –
20 | COc1cc(Nc2cc(CO)[nH]n2)nc(N[C@@H]2C[C@H]3CC[C@@H](C2)N3S(=O)(=O)c2cccnc2)n1 [Example 1-3] | – | – | 0.001 to 0.01 | 0.2 to 1

Source: patent US10028960B2, “Pyrimidine compounds as JAK kinase inhibitors” (THERAVANCE BIOPHARMA R&D IP, LLC, priority 2016, dated 2018)
